This is an account of results in patent US20180170941A1 (priority 2016, published 2018).

Where only a bound is given, the exact number is not on record here.

This experiment deals with T1, α5β3γ2 GABAA receptors (Ltk cell membranes) (Homo sapiens, UniProt P18507+P31644).
T1 construct: membranes
T1 sequence (P31644 32-462): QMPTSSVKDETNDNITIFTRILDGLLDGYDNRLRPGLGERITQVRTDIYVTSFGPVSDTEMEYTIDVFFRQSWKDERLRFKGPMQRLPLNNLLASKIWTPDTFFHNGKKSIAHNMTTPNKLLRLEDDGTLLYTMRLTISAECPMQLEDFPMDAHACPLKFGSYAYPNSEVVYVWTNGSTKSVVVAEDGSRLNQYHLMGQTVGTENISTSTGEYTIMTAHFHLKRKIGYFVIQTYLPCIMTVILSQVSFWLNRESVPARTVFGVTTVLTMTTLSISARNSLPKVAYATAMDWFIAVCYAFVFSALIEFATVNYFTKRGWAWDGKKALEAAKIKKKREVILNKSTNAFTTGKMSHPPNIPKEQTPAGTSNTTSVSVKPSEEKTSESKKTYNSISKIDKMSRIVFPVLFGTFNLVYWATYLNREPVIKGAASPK
T1 sequence (P28472 26-473 partner): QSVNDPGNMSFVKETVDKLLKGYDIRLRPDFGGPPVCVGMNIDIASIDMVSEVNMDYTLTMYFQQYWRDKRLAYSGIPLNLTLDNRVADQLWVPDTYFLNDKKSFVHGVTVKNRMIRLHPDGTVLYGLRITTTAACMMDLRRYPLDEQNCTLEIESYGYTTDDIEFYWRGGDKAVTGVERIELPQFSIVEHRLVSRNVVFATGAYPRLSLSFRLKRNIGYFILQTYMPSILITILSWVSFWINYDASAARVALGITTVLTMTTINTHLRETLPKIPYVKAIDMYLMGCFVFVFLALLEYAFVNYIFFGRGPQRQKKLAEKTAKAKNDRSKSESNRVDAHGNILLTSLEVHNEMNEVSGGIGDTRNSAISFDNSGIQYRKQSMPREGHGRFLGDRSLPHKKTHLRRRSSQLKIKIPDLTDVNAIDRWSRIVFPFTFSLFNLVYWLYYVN
T1 sequence (P18507 40-475): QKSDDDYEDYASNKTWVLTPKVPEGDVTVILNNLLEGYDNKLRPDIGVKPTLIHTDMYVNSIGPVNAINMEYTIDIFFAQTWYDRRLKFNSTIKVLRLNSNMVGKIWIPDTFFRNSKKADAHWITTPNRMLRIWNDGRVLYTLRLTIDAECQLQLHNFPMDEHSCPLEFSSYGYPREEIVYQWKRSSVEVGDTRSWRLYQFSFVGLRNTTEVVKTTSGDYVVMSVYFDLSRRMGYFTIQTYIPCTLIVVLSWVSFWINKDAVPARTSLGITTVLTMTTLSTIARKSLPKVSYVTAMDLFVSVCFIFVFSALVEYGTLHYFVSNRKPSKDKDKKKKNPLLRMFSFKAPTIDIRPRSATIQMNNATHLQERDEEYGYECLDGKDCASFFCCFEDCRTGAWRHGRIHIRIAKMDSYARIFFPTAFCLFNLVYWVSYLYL
Briefly: Binding activity of test compounds on GABAAR: inhibition of [3H]Ro15-1788 binding. The settings on record: GABA α5 Binding Ki Values, inhibition of [3H]Ro15-1788 binding; reported as ranges. The procedure, abridged:
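Membranes from dexamethasone-induced Ltk cells (α5 line: 0.5 μM, 1 day); binding with [3H]Ro15-1788 for 1 h at 4 °C in 50 mM KH2PO4, 1 mM EDTA, 0.2 M KCl, pH 7.4, 0.2 mg/ml α5 protein. Nonspecific binding defined by 10 μM diazepam; filtration, scintillation counting, triplicates.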
One may read the Ki as the dissociation constant of the complex between target and ligand, obtained from inhibition or displacement. A higher Ki goes with lower affinity. `CC#Cc1ncn2c1Cn1c(COCc3ccccc3)nnc1-c1cc(Cl)ccc1-2` [Compound 352] returned an inhibition constant (Ki) of 0.1 to 1 µM.

The compound `CC(C)[C@H]1COC(c2ncn3c2Cc2cnnn2-c2cc(Cl)ccc2-3)=N1` [Compound 363] yielded a Ki of 0.1 to 1 µM.

`CC1(C)COC(c2ncn3c2Cc2cnnn2-c2cc(Cl)ccc2-3)=N1` [Compound 364] yielded a Ki of less than 0.1 µM.

On to `COc1ccc2c(c1)-n1nncc1Cc1c(C3=N[C@@H](c4ccccc4F)CO3)ncn1-2` [Compound 366], for which the Ki is less than 0.1 µM.

The compound `COc1ccc2c(c1)-n1nncc1Cc1c(C3=N[C@@H](c4ccc(Cl)cc4)CO3)ncn1-2` [Compound 368] registered a Ki of less than 0.1 µM.

In turn, `COc1ccc2c(c1)-n1nncc1Cc1c(C3=N[C@@H](c4cc(F)ccc4F)CO3)ncn1-2` [Compound 369] displayed a Ki of less than 0.1 µM.

As to `COc1ccc2c(c1)-n1nncc1Cc1c(C3=N[C@@H](c4cccc5ccccc45)CO3)ncn1-2` [Compound 370], the Ki was in the range of 0.1 to 1 µM.

`COc1ccc2c(c1)-n1nncc1Cc1c(C3=N[C@@H](c4cccc(C(F)(F)F)c4)CO3)ncn1-2` [Compound 371] returned a Ki of 0.1 to 1 µM.

`COc1ccc2c(c1)-n1nncc1Cc1c(C3=N[C@@H](c4ccc(C(F)(F)F)cc4)CO3)ncn1-2` [Compound 372] showed a Ki of less than 0.1 µM.

`COc1ccc2c(c1)-n1nncc1Cc1c(C3=N[C@@H](c4ccccc4C)CO3)ncn1-2` [Compound 373] returned an inhibition constant (Ki) of less than 0.1 µM.

Regarding `COc1ccc2c(c1)-n1nncc1Cc1c(C3=N[C@@H](c4ccc(Cl)cc4Cl)CO3)ncn1-2` [Compound 374], the Ki was 0.1 to 1 µM.

Turning to `COc1ccc2c(c1)-n1nncc1Cc1c(C3=N[C@@H](c4ccc(F)c(C(F)(F)F)c4)CO3)ncn1-2` [Compound 375], the inhibition constant (Ki) is less than 0.1 µM.

In turn, `Cc1nnn2c1Cc1c(C3=N[C@@H](c4ccccc4)CO3)ncn1-c1ccc(Cl)cc1-2` [Compound 376] showed a Ki of 0.1 to 1 µM.

In the case of `Cc1nnn2c1Cc1c(C3=N[C@H](c4ccccc4)CO3)ncn1-c1ccc(Cl)cc1-2` [Compound 377], the Ki is less than 0.1 µM.

Regarding `Cc1nnn2c1Cc1c(C3=N[C@@H](c4ccccc4F)CO3)ncn1-c1ccc(Cl)cc1-2` [Compound 378], the Ki was 0.1 to 1 µM.

`Cc1nnn2c1Cc1c(C3=N[C@@H](c4ccc(F)cc4)CO3)ncn1-c1ccc(Cl)cc1-2` [Compound 379]: the inhibition constant (Ki) was 0.1 to 1 µM.

For `COc1ccc2c(c1)-n1nncc1Cc1c(C3=N[C@@H](C(C)C)CO3)ncn1-2` [Compound 382], the Ki fell in the range of 0.1 to 1 µM.

Regarding `COc1ccc2c(c1)-n1nncc1Cc1c(C3=NCCO3)ncn1-2` [Compound 383], the Ki was less than 0.1 µM.

The compound `C#Cc1ccc2c(c1)-c1nnc(COC)n1Cc1c(C3=N[C@@H](C(C)C)CO3)ncn1-2` [Compound 384] displayed a Ki of 0.1 to 1 µM.

As to `Clc1ccc2c(c1)-n1nncc1Cc1c(-c3nc(-c4ccccc4)co3)ncn1-2` [Compound 385], the Ki was less than 0.1 µM.

`FC(F)(F)c1ccc(-c2coc(-c3ncn4c3Cc3cnnn3-c3cc(Cl)ccc3-4)n2)cc1` [Compound 386] yielded a Ki of more than 1 µM.

`CC(C)c1coc(-c2ncn3c2Cc2cnnn2-c2cc(Cl)ccc2-3)n1` [Compound 387] came in with a Ki of less than 0.1 µM.

Consider `COc1ccc2c(c1)-n1nncc1Cc1c(-c3nc(-c4ccccc4)co3)ncn1-2` [Compound 388], for which the inhibition constant Ki was less than 0.1 µM.

Turning to `COc1ccc2c(c1)-n1nncc1Cc1c(-c3nc(-c4cccc(C(F)(F)F)c4)co3)ncn1-2` [Compound 389], the Ki is more than 1 µM.

`COc1ccc2c(c1)-n1nncc1Cc1c(-c3nc(-c4ccc(C(F)(F)F)cc4)co3)ncn1-2` [Compound 390]: the Ki is more than 1 µM.

In turn, `COc1ccc2c(c1)-n1nncc1Cc1c(-c3nc(-c4ccc(F)c(C(F)(F)F)c4)co3)ncn1-2` [Compound 392] displayed a Ki of 0.1 to 1 µM.

`Clc1ccc2c(c1)-n1nncc1Cc1c(-c3ncco3)ncn1-2` [Compound 393] had a Ki of less than 0.1 µM.

Compound `COc1ccc2c(c1)-n1nncc1Cc1c(-c3nc(C(C)C)co3)ncn1-2` [Compound 394] came in with a Ki of less than 0.1 µM.

As to `Clc1ccc2c(c1)-n1nncc1Cc1c(C#Cc3ccccc3)ncn1-2` [Compound 395], the Ki was less than 0.1 µM.

Compound `Cc1ccccc1C#Cc1ncn2c1Cc1cnnn1-c1cc(Cl)ccc1-2` [Compound 396] yielded a Ki of less than 0.1 µM.

Compound `COc1ccc(C#Cc2ncn3c2Cc2cnnn2-c2cc(Cl)ccc2-3)cc1` [Compound 397] came in with a Ki of less than 0.1 µM.

Turning to `FC(F)(F)CC#Cc1ncn2c1Cc1cnnn1-c1cc(Cl)ccc1-2` [Compound 398], the inhibition constant Ki is less than 0.1 µM.

The compound `Fc1ccccc1C#Cc1ncn2c1Cc1cnnn1-c1cc(Cl)ccc1-2` [Compound 399] had an inhibitory constant (Ki) of less than 0.1 µM.

In the case of `Clc1ccc2c(c1)-n1nncc1Cc1c(C#Cc3ccccn3)ncn1-2` [Compound 401], the Ki was less than 0.1 µM.

`Clc1ccc2c(c1)-n1nncc1Cc1c(C#Cc3cccnc3)ncn1-2` [Compound 402] gave an inhibition constant (Ki) of less than 0.1 µM.

On to `C#Cc1ncn2c1Cc1cnnn1-c1cc(OC)ccc1-2` [Compound 403], for which the inhibition constant (Ki) was less than 0.1 µM.

`COc1ccc2c(c1)-n1nncc1Cc1c(C#Cc3ccccc3)ncn1-2` [Compound 404] displayed a Ki of less than 0.1 µM.

The compound `COc1ccc2c(c1)-n1nncc1Cc1c(C#Cc3ccccc3C)ncn1-2` [Compound 405] displayed a Ki of less than 0.1 µM.

Regarding `COc1ccc2c(c1)-n1nncc1Cc1c(C#Cc3ccc(C(F)(F)F)cc3)ncn1-2` [Compound 406], the Ki is less than 0.1 µM.

In the case of `COc1ccc2c(c1)-n1nncc1Cc1c(C#Cc3cccnc3)ncn1-2` [Compound 407], the Ki is less than 0.1 µM.

As for `COc1ccc2c(c1)-n1nncc1Cc1c(C#Cc3ccccn3)ncn1-2` [Compound 408], the Ki was less than 0.1 µM.

As for `COc1cccc(C#Cc2ncn3c2Cc2cnnn2-c2cc(OC)ccc2-3)c1` [Compound 409], the Ki is less than 0.1 µM.

As for `CC#Cc1ncn2c1Cc1cnnn1-c1cc(OC)ccc1-2` [Compound 410], the Ki was less than 0.1 µM.

In the case of `COc1ccc2c(c1)-n1nncc1Cc1c(C#Cc3ccccc3F)ncn1-2` [Compound 411], the Ki was less than 0.1 µM.

In turn, `COc1ccc2c(c1)-n1nncc1Cc1c(C#Cc3ccc(OC(F)(F)F)cc3)ncn1-2` [Compound 412] had a Ki of less than 0.1 µM.

Compound `COc1ccc2c(c1)-n1nncc1Cc1c(C#CCc3ccccc3)ncn1-2` [Compound 413] registered a Ki of less than 0.1 µM.

The compound `COc1ccc(C#Cc2ncn3c2Cc2cnnn2-c2cc(OC)ccc2-3)cc1` [Compound 414] showed a Ki of less than 0.1 µM.

Turning to `CC(C)C#Cc1ncn2c1Cc1cnnn1-c1cc(Cl)ccc1-2` [Compound 415], the Ki is less than 0.1 µM.

With `CC#Cc1ncn2c1Cc1cnnn1-c1cc(Cl)ccc1-2` [Compound 416], the Ki was less than 0.1 µM.

`COc1ccc2c(c1)-n1nncc1Cc1c(C#CCc3cccc(Cl)c3)ncn1-2` [Compound 417] yielded a Ki of less than 0.1 µM.

The compound `COc1ccc2c(c1)-n1nncc1Cc1c(C#CCc3cccc(OC(F)(F)F)c3)ncn1-2` [Compound 418] gave an inhibition constant Ki of less than 0.1 µM.

Take `COc1ccc2c(c1)-n1nncc1Cc1c(C#CCc3cccc(F)c3)ncn1-2` [Compound 419]: the Ki is less than 0.1 µM.

Compound `COc1ccc2c(c1)-n1nncc1Cc1c(C#CCc3ccccc3OC(F)(F)F)ncn1-2` [Compound 420] came in with a Ki of less than 0.1 µM.

`COCc1nnc2n1Cc1c(C#CCc3cccc(F)c3)ncn1-c1ccc(Cl)cc1-2` [Compound 421] yielded a Ki of less than 0.1 µM.
